# US5646180A (priority 1995, dated 1997)
# Read-outs that look alike come from different tables or passages of the source.
# Legend:
# [1] = cited from earlier work
# [2] = Description: […]. The potential of this compound to be delivered at doses far exceeding its effective antiviral level is advantageous in slowing or preventing the possibility of resistant variants developing.
# HIV-1 virus = experiment: HIV-1 infection of immortalized human T cells, assay of extracellular p24 antigen; assay type: cell-based; details: over a period of days
# Description: Accordingly, the compound is capable of targeting and inhibiting late stage events in HIV replication, i.e., the processing of the viral polyproteins by HIV encoded proteases. […] Because aspartyl protease is essential for the production of mature virions, inhibition of that processing effectively blocks the spread of virus by inhibiting the production of infectious virions, particularly from chronically infected cells. […] Other anti-viral assays have confirmed the potency of this compound.
# oral availability = assay type: in vivo; details: oral administration, mammals
# HIV = assay type: cell-based
# HIV-1 protease = experiment: ligand for / inhibition of HIV-1 protease; assay type: biochemical
# HIV-2 protease = experiment: ligand for / inhibition of HIV-2 protease; assay type: biochemical
# aqueous solubility = assay type: physicochemical; details: water
# [3] = prior-art HIV drugs, background statement, nucleosides compared with AZT
smiles,measurement,setting,value
CC(C)c1nc(CN(C)C(=O)N[C@H](C(=O)N[C@@H](Cc2ccccc2)C[C@H](O)[C@H](Cc2ccccc2)NC(=O)OCc2cncs2)C(C)C)cs1 [ABT 538],CNS distribution / CNS penetration (in words),[1]; in vivo,very limited CNS penetration
CC(C)(C)NC(=O)[C@@H]1CN(Cc2cccnc2)CCN1C[C@@H](O)C[C@@H](Cc1ccccc1)C(=O)N[C@H]1c2ccccc2C[C@H]1O [Compound L-535524],CNS distribution / CNS penetration (in words),[1]; [3],about the same distribution
CC(C)CN(CC(O)C(Cc1ccccc1)NC(=O)OC1CCOC1)S(=O)(=O)c1ccc(N)cc1 (stereo not shown) [Compound I],therapeutic index (in words),[2],impressively high therapeutic index
same,inhibition of the ability of HIV-1 to infect immortalized human T cells (in words),HIV-1 virus,inhibits the ability of the HIV-1 virus to infect immortalized human T cells
same,oral availability (in words),oral availability,surprisingly impressive oral availability
same,combination effect in preventing the replication of HIV in human T cells (in words),HIV,acts in an additive or synergistical manner
same,ligand for HIV-1 protease (in words),HIV-1 protease,excellent ligand
same,ligand for HIV-2 protease (in words),HIV-2 protease,excellent ligand
same,solubility,aqueous solubility,≥ 100 µg/mL
Cc1cn([C@H]2C=C[C@@H](CO)O2)c(=O)[nH]c1=O [d4T],CNS distribution / CNS penetration (in words),[1]; [3],even worse distribution profiles in the CNS
